Read-outs that look alike come from different tables or passages of the source.

The Ki is the equilibrium dissociation constant of an inhibitor or competing ligand from its target.

For data set [1], the target named is Aβ1-42 fibers (Homo sapiens, UniProt P05067). The experiment in a line: In vitro direct determination of Kd and Bmax by fluorescence, Aβ1-42 fibers. In kind it is binding. The settings on record: for Aβ Bmax1: density of binding sites; for Aβ Bmax1 / Kd: direct fluorescence, Scatchard analysis; for Kd: Aβ1-42 fibers 500 nM, read-out: Aβ Kd1; for Aβ Bmax1 (number of sites/monomer): in brackets in the Bmax cell. Here is the method: (§1) To obtain fiber assembly, α-syn is incubated in Tris-HCl 50 mM pH7.5, KCl 150 mM at 37° C. under continuous agitation during 4 days. The lyophilized Aβ1-42 was dissolved in 1,1,1,3,3,3-Hexafluoro-2-propanol (HFIP) at 0.2 mg/mL and incubated for 24 h at 37° C. to obtain the complete solubilization. The HFIP is evaporated under nitrogen stream to obtain a dry product. To start the fiber assembly, the dry peptide is resuspended in PBS pH7.4, 10% (v/v) DMSO and incubated at 37° C. for 3 days without agitation.
(§2) Fresh solutions of each test compound (2.5 mM in DMSO) are diluted in PBS pH=7.4 at concentrations between 0.5 nM and 5 μM in the presence or absence of α-syn (200 nM), Aβ1-42 (500 nM) or Tau (200 nM) fibers in a final 2 mL volume. After 1 h of incubation at RT, the binding of each compound to α-syn, A131-42 or Tau fibers is measured by fluorescence using the spectral changes of the compounds during their binding to the fibers, using the appropriate excitation/emission wavelengths (those giving the highest fluorescence variation during binding to the fibres). For each concentration of compound added to the fibres, the bound and free fractions are measured by fluorescence according to the following equation: Fm=FBB+FF×(T−B)
(§3) The value of FF is determined by measuring the fluorescence of known concentrations of compounds in the absence of fibres. The FB value is determined by measuring the maximum fluorescence of known concentrations of compounds in the presence of saturated concentrations of α-syn, Aβ1-42, or Tau fibers.
(§4) The values of B thus determined versus the concentrations of the free fractions (T-B) are analyzed according to the Michaelis-Menten equation. The affinity (Kd) and density of binding sites within the fibers of α-syn, Aβ1-42 or Tau (Bmax) are determined by Scatchard analysis, which also makes it possible to highlight multiple site classes.

Data set [2] deals with Aβ1-42 fibers. Described as above. The class given is binding. The following applies: selective = good affinity and at least two times greater than for at least one of the two other proteins. Here is the method:
as §1, §2, §3, §4

The nature of data set [3]: In vivo evaluation of fluorine-18-labelled tracer: PET/CT and tissue radioactivity (BBB crossing, bone fixation). The following applies: healthy adult male Wistar rat, intravenous injection of 18F tracer. The method, then: The objective is to determine whether the tracer has the blood-brain barrier (BBB) crossing properties in sufficient quantities to be used as a PET imaging tracer. In addition, bone fixation can be qualified, which reflects the degree of defluorination of the tracer in vivo.
Animal Model: Adult male rats of Wistar strain.
In vivo study: the healthy animal receives an intravenous injection of the tracer test (molecule 28).
From the moment of injection, imaging is carried out using a dedicated system (PET/CT) which records the intracerebral accumulation of radioactivity (Sérrière et al. Nucl. Med. Biol. 2014, 41:103-13; Sérrière et al. Neurobiol. Aging 2015, 36:1639-52). At the end of the imaging, the animal is euthanized; the brain and a bone fragment (femur) are collected, weighed and their radioactivity is measured. This method allows to precisely quantify the accumulation of the tracer in the tissues. The results are expressed as a percentage of the injected tracer dose/g of tissue (% DI/g).

The target of data set [4] is α-syn fibers (Homo sapiens (Human), UniProt P37840). The experiment in a line: In vitro direct determination of Kd and Bmax by fluorescence, α-syn fibers. In kind it is binding. The following applies: for αsyn Bmax1: density of binding sites; for αsyn Bmax1 / Kd: direct fluorescence, Scatchard analysis; for Kd: α-syn fibers 200 nM, read-out: αsyn Kd1; for αsyn Bmax1 (number of sites/monomer): in brackets in the Bmax cell. The method, then: as §1, §2, §3, §4

For data set [5], the target named is Tau fibers (Homo sapiens (Human), UniProt P10636). The experiment in a line: In vitro direct determination of Kd and Bmax by fluorescence, Tau fibers. The class given is binding. The settings on record: for Tau Bmax1: density of binding sites; for Tau Bmax1 / Kd: direct fluorescence, Scatchard analysis; for Kd: Tau fibers 200 nM, read-out: Tau Kd1; for Tau Bmax1 (number of sites/monomer): in brackets in the Bmax cell; for Tau selectivity according to analysis of Kd (Tables 6 and 7): selective = good affinity and at least two times greater than for at least one of the two other proteins. The method, then: Human Tau protein (isoform h2N4RTau) is expressed in the vector pET11d in E. Coli (strain BL21 (DE3), (Stratagene, La Jolla, Calif.)) and purified according to the described method (Barghorn S, Biernat J, Mandelkow E. (2005) Methods Mol Biol. 299:35-51). The Tau purified concentration is determined by measuring the absorbance at 280 nm using a molar extinction coefficient of 7450 M^−1 cm^−1.
(§5) Tau protein in PBS buffer containing 1 mM DTT is assembled into fiber in the presence of one twelfth of a molar equivalent of heparin at 37° C. under stirring.
as §2
Where Fm is the fluorescence measured in the presence of fibers at a concentration T of the compound added to the fibers, FB is the specific fluorescence of the bound compound, FF is the specific fluorescence of the free compound, and B is the concentration of the fiber bound compound at a given concentration T (Bell, J. E., “Fluorescence; Solution Studies”, Spectrometry in Biochemistry, vol. I, Bell, J. E., ed., CRC Press, Inc., Boca Raton, Fla., pp. 155-194 (1981)).
as §3
Thus, at each point, the concentration of bound compound B is determined according to the following equation: B=(Fm−FF×T)/(FB−FF)
as §4

Data set [6] has as its target α-syn fibres (Homo sapiens (Human), UniProt P37840). The experiment in a line: In vitro inhibition of ThT binding and determination of Ki (fluorescence), α-syn fibres. The following applies: for Ki: vs Thioflavin T 500 nM, α-syn fibres 200 nM, PBS pH7.4, 1 h RT, read-out: Ki αsyn. Here is the method:
as §1
(§6) Protein fibers are systematically observed by electron microscopy (Jeol 1400). The images are recorded with a CCD camera (Gatan Orius). Finally, the percentage of α-syn and Aβ1-42 aggregated into fibers is checked on the pellet after centrifugation at 40000×g for 20 min and determination of the concentration of soluble protein/peptide remaining in the supernatant.
(§7) The samples are incubated for 1 h at room temperature (RT) to reach equilibrium. […] From each curve, the IC50 value is measured using the following equation: Y=min+(max−min)/1+([…])^slope

Data set [7] deals with Aβ1-42 fibres (Homo sapiens, UniProt P05067). The experiment in a line: In vitro inhibition of ThT binding and determination of Ki (fluorescence), Aβ1-42 fibres. The following applies: vs Thioflavin T 500 nM; Aβ1-42 fibres 500 nM; PBS pH7.4, 1 h RT; read-out: Ki Aβ. Here is the method: as §1, §6, §7
For data set [8], the target named is Tau fibres (Homo sapiens (Human), UniProt P10636). The experiment in a line: In vitro inhibition of ThT binding and determination of Ki (fluorescence), Tau fibres. The method, then: as §5, §7
Where [9] appears, read: selective = good affinity and at least two times greater than for at least one of the two other proteins.

Aβ1-42 fibers (Homo sapiens, UniProt P05067), sequence (P05067 672-713 limits assumed): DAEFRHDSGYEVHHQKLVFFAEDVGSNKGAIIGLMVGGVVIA
Tau fibres, sequence (P10636 other isoform, or with tags, fused parts or gaps): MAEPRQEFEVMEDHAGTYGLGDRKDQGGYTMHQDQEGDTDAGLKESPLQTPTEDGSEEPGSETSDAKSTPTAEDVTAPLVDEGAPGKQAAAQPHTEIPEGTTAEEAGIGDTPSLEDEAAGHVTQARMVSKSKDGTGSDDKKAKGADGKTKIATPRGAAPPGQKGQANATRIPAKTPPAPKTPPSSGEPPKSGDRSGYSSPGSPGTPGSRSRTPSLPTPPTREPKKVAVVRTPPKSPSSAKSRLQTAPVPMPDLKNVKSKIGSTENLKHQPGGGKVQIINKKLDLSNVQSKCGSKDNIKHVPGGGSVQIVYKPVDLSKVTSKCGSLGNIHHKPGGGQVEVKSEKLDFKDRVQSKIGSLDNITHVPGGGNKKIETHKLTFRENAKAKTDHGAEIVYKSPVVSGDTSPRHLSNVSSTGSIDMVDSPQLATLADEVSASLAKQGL
Tau fibers, sequence (P10636 other isoform, or with tags, fused parts or gaps): as above
Aβ1-42 fibres, sequence (P05067 672-713 limits assumed): as the sequence (P05067 672-713 limits assumed) above

Regarding `CN(CCF)c1ccc(C#Cc2cc3cccnc3[nH]2)cc1` [Compound 28, 4-((1H-Pyrrolo[2,3-b]pyridin-2-yl)ethynyl)-N-(2-fluoroethyl)-N-methylaniline], in data set [1], the “Aβ Bmax1” value is recorded as 1.8 ± 0.6 nmol/μmol prot, the Kd stood at 1.2 ± 1 nM and the “Aβ Bmax1 (number of sites/monomer)” value is on record as 1/600. Besides, the “Aβ selectivity according to analysis of Kd (Tables 6 and 7)” value in data set [2] is “selective”. Also, the “Passing of the BBB: brain accumulation, percentage of injected tracer dose/g of tissue” value in data set [3] (brain collected at end of imaging) is on record as “≈ 0.4 % DI/g”. In addition, the “binding to bone: femur accumulation, percentage of injected tracer dose/g of tissue” value in data set [3] (femur at end of imaging, reflects defluorination) is 0.3 % DI/g. Also, in data set [4], the “αsyn Bmax1” value turned out to be 141.5 ± 45 nmol/μmol prot, the Kd was 2.4 ± 1 nM and the “αsyn Bmax1 (number of sites/monomer)” value was 1/7. In data set [5], the “Tau Bmax1” value was 46.5 ± 5 nmol/μmol prot; the Kd is 0.97 ± 0.4 nM; the “Tau Bmax1 (number of sites/monomer)” value is recorded as 1/20; the “Tau selectivity according to analysis of Kd (Tables 6 and 7)” value is recorded as “selective”.

For `CN(C)c1ccc(C#Cc2cc3cccnc3[nH]2)cc1` [Compound 22a, 4-((1H-Pyrrolo[2,3-b]pyridin-2-yl)ethynyl)-N,N-dimethylaniline], in data set [1], the “Aβ Bmax1” value is 3.04 ± 0.6 nmol/μmol prot, the Kd is 11.8 ± 3 nM and the “Aβ Bmax1 (number of sites/monomer)” value is recorded as 1/300. In addition, the “α-syn selectivity according to analysis of Ki (Table 5)” value in data set [6] (setting [9]) was “selective”. Moreover, the Ki in data set [6] was 4.7 ± 2 nM. Further, in data set [4], the “αsyn Bmax1” value was 69.5 ± 20 nmol/μmol prot, the Kd amounted to 0.53 ± 0.2 nM and the “αsyn Bmax1 (number of sites/monomer)” value is listed as 1/14. Also, the “α-syn selectivity according to analysis of Kd (Tables 6 and 7)” value in data set [4] (setting [9]) is recorded as “selective”. Moreover, in data set [7], the Ki turned out to be 24.5 ± 9 nM. Further, the Ki in data set [8] came out at 4.61 ± 0.2 nM. Besides, in data set [8] (setting [9]), the “Tau selectivity according to analysis of Ki (Table 5)” value is “selective”. Moreover, in data set [5], the “Tau Bmax1” value is 93.0 ± 15 nmol/μmol prot; the Kd is 0.44 ± 0.1 nM; the “Tau Bmax1 (number of sites/monomer)” value is 1/10; the “Tau selectivity according to analysis of Kd (Tables 6 and 7)” value was “selective”.

On to `CNc1ccc(/C=C/c2ccc(OCCOCCOCCF)nc2)cc1` [AV45, reference compound], for which, in data set [1], the “Aβ Bmax1” value was determined as 3.33 ± 0.2 nmol/μmol prot, the Kd came out at 1.68 ± 0.2 nM and the “Aβ Bmax1 (number of sites/monomer)” value is 1/300. In data set [6], the Ki was 76.6 ± 44 nM. For the same compound, in data set [4], the “αsyn Bmax1” value is on record as 27.9 ± 19 nmol/μmol prot, the Kd came out at 24.3 ± 20 nM and the “αsyn Bmax1 (number of sites/monomer)” value is given as 1/35. In addition, the Ki in data set [7] came to 2.2 ± 1 nM. The Ki in data set [8] (vs Thioflavin T 500 nM, Tau fibres 200 nM, PBS pH7.4, 1 h RT) was found to be 30.6 ± 9 nM. In addition, in data set [5], the “Tau Bmax1” value is reported as 92.0 ± 20 nmol/μmol prot, the Kd is 19.6 ± 5 nM and the “Tau Bmax1 (number of sites/monomer)” value is reported as 1/11.

These data come from US10906900B2, “Compounds for using in imaging and particularly for the diagnosis of neurodegenerative diseases” (CENTRE NATIONAL DE LA RECHERCHE SCIENTIFIQUE, priority 2016, dated 2021).
